Several values for one entry are separate records, joined by “and”; a condition that tells them apart may be missing. Equal values may be shown once. *1 amine or outer side, *2 acyl side, *3 side chain or, on linkers, in order; H or OH if unused. Where a SMILES comes first, the peptide text is derived from it. Bridges are numbered along the chain shown (N, C = ends). Roman numbers before positions name the chains, in order. Where no end group is shown, it is not given here. [ ]: non-standard residue; d: D form. The star is where a group is joined. X2 = O=C1NC(=O)C(SC[C@@H](CO)N[*:2])=C1SC[C@@H](CO)N[*:1]; BMH = O=C1CC([*:1])C(=O)N1CCCCCCN1C(=O)CC([*:2])C1=O; Maleimide(3,4-diyl) = O=C1NC(=O)C([*:2])=C1[*:1]; pXylylene = c1cc(C[*:2])ccc1C[*:1]; aThr = C[C@H](O)[C@H](N)C(=O)O; Ac6c = NC1(C(=O)O)CCCCC1; X1 = C(=C\C[*:2])/C[*:1]; Dab = NCC[C@H](N)C(=O)O; Nva = CCC[C@H](N)C(=O)O; NHNH2 = NN*
Legend:
[1] = test system: E. coli; assay: Synergy results for co-administration of A3-APO (ARV-1501); type: cell-based; details: antibiotic co-administered with A3-APO (ARV-1501)
[2] = test system: H. influenzae; assay: as above; type: cell-based; details: antibiotic co-administered with A3-APO (ARV-1501)
[3] = test system: K. pneumoniae ATCC 13883; assay: Antibacterial assay (MIC); type: cell-based; details: K. pneumoniae ATCC 13883, MHB, 37° C.
Protocol: (§1) Antibacterial assay. Antibacterial assays are undertaken to determine the minimal inhibitory concentrations (MIC) as described previouslyl^6.
(§2) Antibacterial activity. Each C-terminal modified PrAMP DTM-linked tetramer is assayed against nosocomial Gram-negative bacteria, including E. coli ATCC 29222, K. pneumoniae ATCC 13883, A. baumannii ATCC 19606 and P. aeruginosa ATCC 47085.

[4] = test system: A. baumannii ATCC 19606; assay: Antibacterial assay (MIC); type: cell-based; details: A. baumannii ATCC 19606, MHB, 37° C.
Protocol: as §1, §2

[5] = test system: E. coli ATCC 29222; assay: Antibacterial assay (MIC); type: cell-based; details: E. coli ATCC 29222, MHB, 37° C.
Protocol: as §1, §2

[6] = test system: P. aeruginosa ATCC 47085; assay: Antibacterial assay (MIC); type: cell-based; details: P. aeruginosa ATCC 47085, MHB, 37° C.
Protocol: as §1, §2

[7] = test system: multidrug-resistant Acinetobacter baumannii BAA-1605; details: A. baumannii BAA-1605, compound alone
[8] = test system: K. pneumoniae; assay: Synergy results for co-administration of A3-APO (ARV-1501); type: cell-based
Protocol: Restoring antibiotic sensitivity to resistant bacteria. A colistin-resistant, carbapenem-resistant strain of K. pneumonia (K97/09) from a clinical isolate was used to test the effect of A3-APO treatment on antibiotic resistance. An in vitro assay measuring visible bacterial growth in the presence of A3-APO and imipenem or colistin was performed.
Synergy Results for Co-administration of A3-APO (ARV-1501)

[9] = test system: K. pneumoniae K97/09; assay: Bacteremia Synergy Assay 2 (mouse systemic infection); type: in vivo
Protocol: (§3) In vivo Studies. Animals. Assays 1-2. NMRI (Naval Medical Research Institute) BR or CD-1 mice (Toxi-Coop Zrt, Budapest, Hungary) were housed in plastic type 2 cages, 3-5 mice per cage, on softwood granules as bedding. The room was kept between 21° C. and 25° C. with 12 h light:12 h dark cycles. The animals had free access to tap water and pelleted rodent food. Upon completion of the experiments, surviving mice were euthanized by diethyl ether inhalation. Animals were maintained and handled in accordance with the recommendations of the Guidelines for the Care and Use of Laboratory Animals, and the protocols were approved by the Animal Care Committee of Semmelweis University. The planned 15 treatment groups of mice were divided roughly equally into two assays with 8 and 7 treatment groups and untreated controls in each assay for safe and humane handling of large numbers of mice.
(§4) Infection models. NMRI mice weighing approximately 20 g (4 weeks old) were infected by intraperitoneal (ip) injection of 4×10^8 CFU/g K. pneumoniae K97/09. Mice were randomly allocated to 8 and […] groups (5 mice per group).
Bacteremia SYNERGY ASSAY 2.
Group 1: PBS sc 1 h after infection. Group 2: Colistin 1 mg/kg sc at 2 and 13 h after infection. Group 3: A3-APO 1 mg/kg im 1 and 12 h after infection. Group 4: A3-APO 1 mg/kg im 1 and 12 h after infection, colistin 1 mg/kg sc at 2 and 13 h after infection. […]

[10] = test system: multidrug-resistant Klebsiella pneumoniae K97/09; details: K. pneumoniae K97/09, compound alone
[11] = test system: K. pneumoniae K97/09; assay: Bacteremia Synergy Assay 1 (mouse systemic infection); type: in vivo; details: 10 mg/kg sc (Group 4), monotherapy
Protocol: as §3, §4
Bacteremia Synergy Assay 1.
Group 1: phosphate buffered saline (PBS) subcutaneously (sc) 1 h after infection. Group 2: imipenem 30 mg/kg sc at 2, 14 and 26 h after infection. […]
Survival was recorded hourly 24-36 h after infection. […]

[12] = test system: Klebsiella pneumoniae K97/09; assay: Checkerboard synergy assay (FIC index); type: cell-based; details: K. pneumoniae K97/09
Protocol: In vitro activity and synergy. Minimal inhibitory concentration (MIC) assays were performed using sterile 96-well polypropylene plates in a final volume of […]. Briefly, 50 μL of midlogarithmic phase bacterial cultures were diluted to 5×10^5 CFU/mL in Mueller-Hinton broth (MHB) and then added to 50 μL of the serially diluted antibiotic. The highest A3-APO and other test compound concentration evaluated was 256 mg/L. Cultures were incubated at 37° C. for 16-20 h without shaking. MICs were identified as the lowest antimicrobial concentrations at which turbidity was not observed. Antimicrobial synergy was determined by evaluating the fractional inhibitory concentration (FIC) index and was characterized by a conventional checkerboard assay (Fernandez-Cuenca et al., 2003). Bacteria grown to mid-logarithmic phase in MHB were pre-incubated with serially diluted concentrations of peptides such as A3-APO, and the antimicrobial controls, imipenem, colistin or meropenem.
The sum of the FICs (Σ FIC) was calculated with the equation Σ FIC=FICA+FICB=(CA/MICA)+(CB/MICB), where MICA and MICB are the MICs of antimicrobial A and B alone, respectively, and CA and CB are the concentrations of the drugs when combined, respectively. Synergy was defined as a Σ FICs≤0.5 and additive activity was defined as a Σ FICs>0.5≤1.0.

[13] = test system: Acinetobacter baumannii BAA-1605; type: cell-based; details: A. baumannii BAA-1605
Protocol: In vitro activity and synergy. Minimal inhibitory concentration (MIC) assays were performed using sterile 96-well polypropylene plates in a final volume of 100 mL. Briefly, 50 μL of midlogarithmic phase bacterial cultures were diluted to 5×10^5 CFU/mL in Mueller-Hinton broth (MHB) and then added to 50 μL of the serially diluted antibiotic. […] MICs were identified as the lowest antimicrobial concentrations at which turbidity was not observed. Antimicrobial synergy was determined by evaluating the fractional inhibitory concentration (FIC) index and was characterized by a conventional checkerboard assay (Fernandez-Cuenca et al., 2003).

Compound	Antibacterial activity, MIC [3] [µM]	Antibacterial activity, MIC [4] [µM]	Antibacterial activity, MIC [5] [µM]	Antibacterial activity, MIC [6] [µM]	further results
CC1(C)S[C@@H]2[C@H](NC(=O)[C@H](N)c3ccc(O)cc3)C(=O)N2[C@H]1C(=O)O [amoxicillin]					Outcome [1]: reversal of TEM-1 related; Outcome [2]: MIC lowered with priming
I: [Ac6c]RPDKPRPYLPRPRPPRPVR[Dab] / II: [Ac6c]RPDKPRPYLPRPRPPRPVR[Dab] / III: [Ac6c]RPDKPRPYLPRPRPPRPVR / IV: [Ac6c]RPDKPRPYLPRPRPPRPVR (amide I:21-III:C, II:21-IV:C; linker I:C-II:C via X2) [tetramer-DTM-ol]	2.20 ± 0.01	11.61 ± 1.44	3.67 ± 0.25	1.86 ± 0.07	
I: H-[Ac6c]RPDKPRPYLPRPRPPRPVR[Dab]-NHNH2 / II: H-[Ac6c]RPDKPRPYLPRPRPPRPVR (amide I:21-II:C) [dimer-NHNH2]	3.63 ± 0.02	5.31 ± 0.73	2.99 ± 1.00	3.01 ± 0.18	
I: [Ac6c]RPDKPRPYLPRPRPPRPVR[Dab]C-NHNH2 / II: [Ac6c]RPDKPRPYLPRPRPPRPVR[Dab]C-NHNH2 / III: [Ac6c]RPDKPRPYLPRPRPPRPVR / IV: [Ac6c]RPDKPRPYLPRPRPPRPVR (amide I:21-III:C, II:21-IV:C; linker I:22-II:22 via X1) [tetramer-butene-NHNH2]	0.81 ± 0.02	1.89 ± 0.63	0.94 ± 0.04	0.77 ± 0.02	
I: H-[Ac6c]RPDKPRPYLPRPRPPRPVR[Dab]C-NH2 / II: H-[Ac6c]RPDKPRPYLPRPRPPRPVR[Dab]C-NH2 / III: H-[Ac6c]RPDKPRPYLPRPRPPRPVR / IV: H-[Ac6c]RPDKPRPYLPRPRPPRPVR (amide I:21-III:C, II:21-IV:C; linker I:22-II:22 via Maleimide(3,4-diyl)) [tetramer-DTM-NH2]	2.33 ± 0.01	13.29 ± 0.10	2.96 ± 0.99	2.05 ± 0.08	
I: [Ac6c]RPDKPRPYLPRPRPPRPVR[Dab]C-NHNH2 / II: [Ac6c]RPDKPRPYLPRPRPPRPVR[Dab]C-NHNH2 / III: [Ac6c]RPDKPRPYLPRPRPPRPVR / IV: [Ac6c]RPDKPRPYLPRPRPPRPVR (amide I:21-III:C, II:21-IV:C; linker I:22-II:22 via pXylylene) [tetramer-xylene-NHNH2]	4.49 ± 0.56	12.70 ± 0.96	6.24 ± 0.53	1.51 ± 0.33	
I: [Ac6c]RPDKPRPYLPRPRPPRPVR[Dab]C-NHNH2 / II: [Ac6c]RPDKPRPYLPRPRPPRPVR[Dab]C-NHNH2 / III: [Ac6c]RPDKPRPYLPRPRPPRPVR / IV: [Ac6c]RPDKPRPYLPRPRPPRPVR (amide I:21-III:C, II:21-IV:C; linker I:22-II:22 via BMH) [tetramer-bismal-NHNH2]	3.18 ± 0.03	10.35 ± 0.22	3.93 ± 0.04	1.62 ± 0.11	
colistin					MIC [7]: < 0.5 µg/mL; MIC of the antibiotic before co-administration (decrease from) ([8]; antibiotic without A3-APO): > 64; MIC of the antibiotic on co-administration (decrease to) ([8]; co-administered with A3-APO (ARV-1501)): 1; reduction of the bacterial burden ([9]; colistin 1 mg/kg sc (Group 2), after 6 h): < 1 log 10 unit; survival at 36 h ([9]; colistin 1 mg/kg sc twice (Group 2), monotherapy): 40%; MIC [10]: 64 µg/mL; survival [11]: 60%
CCC[C@H](NC(=O)[C@H](CCC(=O)O)NC(=O)[C@@H](N)[C@H](C)O)C(=O)N[C@H](C(=O)N[C@@H](C)C(=O)N[C@@H](CC(C)C)C(=O)N[C@@H](CO)C(=O)N[C@@H](CCCNC(=N)N)C(=O)NC1(C(N)=O)CCCCC1)C(C)C [Allo-aca] (H-[aThr]E[Nva]VALSR[Ac6c]-NH2; N-terminus and C-terminus assumed)					improvement in the MIC values when added together with imipenem or colistin [12]: failed to exert any improvement; improvement in the MIC values when added together with imipenem or colistin [13]: failed to exert any improvement
I: H-[Ac6c]RPDKPRPYLPRPRPPRPVR[Dab]-NH2 / II: H-[Ac6c]RPDKPRPYLPRPRPPRPVR (amide I:21-II:C) [A3-APO, (H-Chex-Arg-Pro-Asp-Lys-Pro-Arg-Pro-Tyr-Leu-Pro-Arg-Pro-Arg-Pro-Pro-Arg-Pro-Val-Arg)2-Dab]	1.44 ± 0.12	8.00 ± 1.09	2.58 ± 1.14	3.13 ± 0.05	MIC [7]: 32 µg/mL; MIC [10]: 32 to 64 µg/mL and 32 µg/mL
O=C(N[C@H](CO)[C@H](O)c1ccc([N+](=O)[O-])cc1)C(Cl)Cl [chloramphenicol]					Outcome [1]: MIC lowered with priming; Outcome ([8]; antibiotic co-administered with A3-APO (ARV-1501)): MIC lowered with priming; Outcome [2]: MIC lowered with priming

Reference: patent US20200323950A1, “ANTIBACTERIAL PEPTIDES AND COMBINATIONS FOR CO-THERAPY” (priority 2017, published 2020)
